The text below walks through data of patent publication US5211944A, “Proanthocyanidin polymers having antiviral activity and methods of obtaining same” (Shaman Pharmaceuticals, Inc., priority 1991, dated 1993).

One data set concerns Influenza viruses. The following applies: cited from earlier work.
Data set [1] in a line: Uninfected toxicity controls, i.p. treatment (HSV-2 study). The format is in vivo, Swiss Webster mice. As to conditions: 30 mg/kg/day i.p. The procedure: Six hours after virus infection, intraperitoneal (i.p.) injections were administered using proanthocyanidin polymer A, ganciclovir, or placebo. Treatments were also given i.p. twice daily on days 1 through 7 after virus challenge. The daily dose of each compound was 30 mg/kg/day, with 15 mg/kg given at each injection. Since on day 0 of the infection only one dose was given, the daily dose for that day was 15 mg/kg/day.
(§1) Groups of 5 mice were sham-infected using the process described above for virus infection, except that no virus was present for the final step. These mice were treated the same way and at the same times as above. Mice were checked daily for survival, and weights were recorded before the first (day 0) and after the last (day 8) treatment.

Data set [2] has as its system Herpes Simplex Virus Type 2 (HSV-2). In words: HSV-2 vaginitis in mice, intraperitoneal treatment. It counts as in vivo, Swiss Webster mice. The following applies: 30 mg/kg/day i.p.
In data set [3] the test system is Herpes simplex virus. The following applies: cited from earlier work.
The subject of data set [4] is Herpes Simplex Virus Type 2 (HSV-2). In words: HSV-2 vaginitis in mice, topical treatment. It counts as in vivo, Swiss Webster mice.
Data set [5] can be described thus: Uninfected toxicity controls, topical treatment (HSV-2 study). As to conditions: 5% topical. It counts as in vivo, Swiss Webster mice. As to the method:
as §1
The efficacy of proanthocyanidin polymer A is compared with ganciclovir and acyclovir. Both ganciclovir powder and acyclovir cream were obtained commercially. Squibb cream base #8, which served as a vehicle and as the topical placebo control, was also commercially obtained.
The methods of infecting the mice, setting toxicity control and the parameters measured to evaluate the infection were the same as described above for the intraperitoneal tests. Topical treatments on the day of infection were given at +6 hours. They were then given twice daily for 7 more days.

For data set [6], the system named is Herpes Simplex virus. The following applies: HEp-2 cells; Beladi et al.; cited from earlier work.
Data set [7] concerns Herpes Simplex virus. As to conditions: Beladi et al., 1977; in vitro; cited from earlier work.

With `CC(N)C12CC3CC(CC(C3)C1)C2` (racemic) [Rimantidine], in the data set with Influenza viruses, the “central nervous system side effects” value is on record as “not associated with the central nervous system side-effects”; the “effect on fever duration and respiratory symptoms, versus amantadine” value is given as “shows a similar effect”.

On to `Nc1nc(O)c2ncn(COC(CO)CO)c2n1` [Ganciclovir], for which the “tolerability in toxicity control mice” value in data set [1] was “gained less weight than placebo controls”. Besides, the “Host Wt. Change” value in data set [1] (day 8 minus day 0) is on record as “+1.0 grams”. Also, the “Mean Day to Death” value in data set [1] (uninfected toxicity controls) and in data set [2] (virus-infected) was more than 21 days throughout. In addition, the Survivors/Total in data set [1] (uninfected toxicity controls) was 5/5; in data set [2] (virus-infected) it was 10/10. For the same compound, in data set [1] (mouse, in vivo, ip, uninfected toxicity controls, read-out: Survivors (%)), the survival is 100%. In addition, the “Average Lesion Score” value in data set [2] (day 3) was 0.1 ± 0.2; in data set [2] (day 4), 0.2 ± 0.2; in data set [2] (day 5) it was 0.2 ± 0.2; in data set [2] (day 6), 0.2 ± 0.2; in data set [2] (day 7), 0.2 ± 0.2; in data set [2] (day 8), 0.3 ± 0.4. In addition, the “Average Lesion Score” value in data set [2] (day 9) was 0.4 ± 0.3; in data set [2] (day 10) it was 0.5 ± 0.5; in data set [2] (day 12), 0.9 ± 0.2; in data set [2] (day 13), 0.6 ± 0.6; in data set [2] (day 14), 0.6 ± 0.6. Moreover, in data set [2] (days 3-14), the “Average Lesion Score, Grand Avg.” value is reported as 0.4 ± 0.2. Further, the “Virus Titer (Day 3)” value in data set [2] (vaginal swab) is on record as 1.7 ± 1.0 Log10 50% cell culture infectious dose per ml. Further, in data set [2] (virus-infected), the “Survivors (%)” value amounted to 100%.

As for `Nc1ncnc2c1ncn2[C@@H]1O[C@H](CO)[C@@H](O)[C@@H]1O` [Vidarabine, adenine arabinoside], the “topical effectiveness” value with Herpes simplex virus [3] is “not effective topically against herpes labialis or other skin/genital infections”.

Consider `Nc1nc2c(ncn2COCCO)c(=O)[nH]1` [Acyclovir], for which the “lesion formation in infected animals” value in data set [4] (5% cream) is recorded as “nearly completely prevented lesion formation”. Moreover, the “Average Lesion Score” value in data set [4] (5% topical, day 3) is 0.2 ± 0.2; in data set [4] (5% topical, day 4), 0.1 ± 0.2; in data set [4] (5% topical, day 5) it was 0.0 ± 0.0; in data set [4] (5% topical, day 6) it was 0.0 ± 0.0; in data set [4] (5% topical, day 7) it was 0.0 ± 0.0; in data set [4] (5% topical, day 8), 0.1 ± 0.2. In addition, the “Average Lesion Score” value in data set [4] (5% topical, day 9) came to 0.0 ± 0.0; in data set [4] (5% topical, day 10) it was 0.0; in data set [4] (5% topical, day 11) it was 0.0 ± 0.0; in data set [4] (5% topical, day 12) it was 0.0 ± 0.0; in data set [4] (5% topical, day 13) it was 0.0 ± 0.0; in data set [4] (5% topical, day 14), 0.0 ± 0.0. Moreover, the “No. of Mice W/O Lesion” value in data set [4] (5% topical, day 14 of the infection) is 10/10. In addition, the “Virus Titer (Day 2)” value in data set [4] (5% topical, vaginal) is 0.6 ± 0.2 Log 10 50% cell culture infectious dose per ml. For the same compound, the “Mean Day to Death” value in data set [4] (5% topical, virus-infected) was more than 21 days; in data set [5] (uninfected toxicity controls) it was more than 21 days. For the same compound, in data set [4] (5% topical, virus-infected), the “Survivors (%)” value is given as 100%. Besides, the Survivors/Total was 10/10 in data set [4] (5% topical, virus-infected) and 5/5 in data set [5] (uninfected toxicity controls). Also, the “topical effectiveness” value in the data set with Herpes simplex virus [3] is reported as “not effective topically when used against recurrent genital infections”. Also, in data set [5] (day 8 minus day 0), the “Host Wt. Change” value is recorded as “+2.0 grams”. Besides, in data set [5] (mouse, in vivo, topical or ocular, uninfected toxicity controls, read-out: Survivors (%)), the survival stood at 100%.

For the compound `O=c1c(O)c(-c2ccc(O)c(O)c2)oc2cc(O)cc(O)c12` [quercetin], in the data set on Herpes Simplex virus [6], the “inhibitory effect on virus multiplication” value is on record as “only a slight inhibitory effect on virus multiplication”.

For the compound `O=c1cc(-c2ccc(O)cc2)oc2cc(O)cc(O)c12` [Apigenin], the “virus-inactivating (viricidal) activity” value in the data set with Herpes Simplex virus [7] is reported as “only a slight effect”.
